What was measured:
[1] = ABTS radical scavenging assay; settings: test samples 100 µM; 2 min in the dark
Protocol: An antioxidant assay using ABTS is also commonly used to assess the antioxidant activities of compounds. Donation of one electron from ABTS to potassium persulfate generates the ABTS radical cation. An ABTS radical scavenging activity assay was performed using 100 µM of BABT derivatives or Trolox (a positive reference control) by mixing test samples with ABTS radical cations obtained from a reaction of potassium persulfate and ABTS. ABTS radical scavenging activity was assessed by measuring the optical density at 734 nm after leaving the test sample–ABTS radical cation mixture in the dark for 2 min.
According to a previously described method, with minor modifications, the ABTS radical scavenging activities of BABT derivatives 1–14 were assessed. Briefly, an ABTS radical solution was prepared by mixing 10 mL of aqueous ABTS solution (7 mM) with 10 mL of potassium persulfate aqueous solution (2.45 mM), and the mixture was kept for 11–15 h in the dark at room temperature until the absorbance remained constant. Prior to the antioxidant assay experiments, the ABTS radical solution was diluted with water to adjust the absorbance at 734 nm to 0.70 ± 0.02. A 10 µL aliquot of BABT derivatives or Trolox at a concentration of 1000 µM was added to 90 µL of ABTS+ free radical solution in each well of a 96-well plate and incubated for 2 min in the dark at ambient temperature. The absorbance of each well was measured at 734 nm using a microplate reader (VersaMax; Molecular Devices). The ABTS+ radical scavenging activities of BABT derivatives were compared to those of Trolox. All experiments were carried out independently, thrice.

[2] = SIN-1-induced ROS scavenging assay; settings: 20 µM; SIN-1 as ROS generator; DCFH-DA probe
Excerpt: The scavenging activities of the BABT derivatives 1–14 against ROS and peroxynitrite (ONOO^−) were investigated because the antioxidant activities of the compounds may modulate melanogenesis. To measure the ROS scavenging activities of BABT derivatives, 2′,7′-dichlorodihydrofluorescein diacetate (DCFH-DA) and 3-morpholinosydnonimine (SIN-1) were used as a fluorogenic probe and ROS generator, respectively. The reaction of DCFH-DA with esterase produces 2′,7′-dichlorodihydrofluorescein (DCFH), which generates the fluorescent compound 2′,7′-dichlorofluorescein (DCF) by reacting with ROS produced by SIN-1. Therefore, ROS scavenging activities were determined by measuring the DCF fluorescence remaining after the BABT derivatives scavenged the ROS generated by SIN-1. […] BABT derivatives and Trolox, the positive control, were used at a concentration of 20 µM.
The ROS scavenging activities of the BABT derivatives were measured using an oxidant-sensitive fluorescent probe. Derivatives or Trolox (10 µL; final concentration: 20 µM) were seeded in a black 96-well plate. Then, 10 µL of SIN-1 (10 µM) was added to induce radical species generation and mixed with 180 µL of sodium phosphate buffer (pH 7.4) containing 12.5 µM DCF-DA and 600 units of esterase. Fluorescence intensity was measured at emission and excitation wavelengths of 535 and 485 nm, respectively, using a fluorescence microplate reader (Berthold Technologies GmbH & Co., Wien, Austria). Trolox was used as the positive control.

[3] = biological target: T1, B16F10 cellular tyrosinase (Mus musculus, UniProt P11344); test: Cellular anti-tyrosinase activity assay; type: cell-based, murine; settings: α-MSH plus IBMX stimulated B16F10 cells, 72 h
T1 construct: host or cells: B16F10 murine melanoma cells
T1 sequence (P11344 19-533): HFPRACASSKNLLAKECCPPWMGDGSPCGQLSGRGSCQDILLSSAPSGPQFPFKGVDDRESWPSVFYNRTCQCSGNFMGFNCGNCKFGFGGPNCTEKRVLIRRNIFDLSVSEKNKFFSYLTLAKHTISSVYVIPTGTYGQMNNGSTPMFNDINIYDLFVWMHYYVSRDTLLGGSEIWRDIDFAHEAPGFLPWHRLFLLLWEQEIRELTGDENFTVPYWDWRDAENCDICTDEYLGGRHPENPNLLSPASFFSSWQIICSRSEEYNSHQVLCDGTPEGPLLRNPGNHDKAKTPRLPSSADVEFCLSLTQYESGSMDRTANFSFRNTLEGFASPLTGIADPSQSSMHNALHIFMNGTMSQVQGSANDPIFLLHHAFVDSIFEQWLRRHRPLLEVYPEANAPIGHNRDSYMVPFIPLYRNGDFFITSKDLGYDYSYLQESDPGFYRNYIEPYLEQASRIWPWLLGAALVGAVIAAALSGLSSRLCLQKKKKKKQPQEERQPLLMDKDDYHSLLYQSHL
Protocol: Briefly, B16F10 cells were seeded at 1 × 10^5 cells/well in a 6-well plate and allowed to adhere to well bottoms for 24 h. […] Then, a stimulator (0.5 µM α-MSH plus 200 µM IBMX) was applied to increase the cellular tyrosinase activity, and the cells were cultured for 72 h under the conditions used for cell cultures. Cultured cells were washed twice with PBS and exposed to an aliquot (100 µL) of the lysis buffer solution containing 20% Triton X-100 (5 µL), 50 mM phosphate buffer (pH 6.5, 90 µL), and 2 mM phenylmethylsulfonyl fluoride (5 µL) to lyse the cultured cells for 30 min at −80 °C. After defrosting, the cell lysates were transferred to microcentrifuge tubes and centrifuged for 30 min at 4 °C and 12,000 rpm, and the supernatants (80 µL) in each well were mixed with 20 µL L-dopa (2 mg/mL) and incubated at 37 °C for 10 min. The absorbance of dopachrome was measured at 475 nm using a microplate reader (VersaMax; Molecular Devices).

[4] = system: microphthalmia-associated transcription factor (MITF); test: Western blotting of MITF protein expression; type: cell-based, murine
Protocol: We investigated whether, in addition to the direct inhibition of tyrosinase, another inhibitory mechanism of melanogenesis by derivative 8 may be related to the expression of proteins involved in melanogenesis. For the Western blotting experiment, B16F10 cells were treated with α-MSH (1 µM) plus IBMX (200 µM), leading to a 1.7- and 4.9-fold increase in expression levels of melanogenesis-associated proteins tyrosinase and MITF, compared to those in the untreated control (100%) (Figure 13).
B16F10 cells were seeded in a 60 mm dish at a density of 5 × 10^5 cells/mL for 24 h, washed with cold PBS, and harvested. Cytosolic and nuclear fractions of cell lysates were extracted using lysis buffer, as described previously. Protein concentrations in the cell lysates were estimated using the BCA protein assay (Pierce, Rockford, IL, USA). […] The membranes were washed and protein bands detected using the SuperSignal West Pico Chemiluminescence assay kit (Advansta, San Jose, CA, USA) and the Davinch–Chem program (Davinch-K, Seoul, Republic of Korea). Immunoblotting data were quantified using CS Analyzer 3.2 (Densitograph) image analysis software (http://www.attokorea.co.kr, accessed on 21 November 2022).

inhibition of cellular tyrosinase activity (in words) ([3]; 5 µM): more than that by kojic acid at 20 µM | cellular tyrosinase activity compared to untreated control ([3]; 20 µM): 1.7 fold
SMILES: O=C1N=C(NCc2ccccc2)S/C1=C\c1ccc(O)cc1O [Compound 8, (Z)-2-(benzylamino)-5-(2,4-dihydroxybenzylidene)thiazol-4(5H)-one]
ABTS radical scavenging activity, % inhibition [1]: 96% | ROS scavenging activity (in words) [2]: did not show significant ROS scavenging effect | relative expression level of MITF protein ([4]; 10 µM, α-MSH plus IBMX treated B16F10 cells): lowered the protein expression to the same or lower control levels | relative expression level of MITF protein ([4]; 5, 10 and 20 µM, α-MSH (1 µM) plus IBMX (200 µM) treated B16F10 cells): significantly reduced the relative expression levels of tyrosinase and MITF in a dose-dependent manner

— publication PMC9865752, “Design and Synthesis of (Z)-2-(Benzylamino)-5-benzylidenethiazol-4(5H)-one Derivatives as Tyrosinase Inhibitors and Their Anti-Melanogenic and Antioxidant Effects” (Molecules, 2023)
